# In patent publication US6291496A, “Treating cancers associated with overexpression of class I family of receptor tyrosine kinases” (priority 1999, dated 2001):
# What was measured:
# [1] = biological target: human PPARγ binding domain; settings: scintillation proximity assay, radioligand [3H]BRL 49653; values reported in Henke et al, Collins et al, Cobb et al; cited from earlier work
# HER-2/neu mRNA = experiment: Northern blotting for HER-2/neu mRNA in 184B5/HER cells; format: cell-based, human; settings: 25 μM ciglitazone or 20 μM 15-d-PGJ2
# Description: Northern blotting was performed to evaluate whether PPARγ ligands decrease levels of HER-2/neu mRNA. 184B5/HER cells were treated with vehicle (0.01% dimethyl sulfoxide), 25 μM ciglitazone or 20 μM 15-d-PGJ2. Total cellular RNA was isolated from cell monolayers using an RNA isolation kit from Qiagen Inc. 10 μg of RNA was added to each lane. The 10 μg of total cellular RNA per lane were electrophoresed in a formaldehyde-containing 1.2% agarose gel and transferred to nylon-supported membranes. The blot was hybridized with probes that recognized HER-2/neu mRNA (Santa Cruz Biotechnology, Inc., Santa Cruz, Calif.) and 18S rRNA cDNA (Ambion, Inc., Austin, Tex.).
# EGFR promoter = experiment: transient transfection assay, human EGFR promoter construct ligated to luciferase, 184B5 cells; format: cell-based; settings: 0-25 μM, 24 hours, FIG. 2
# Description: To determine whether PPARγ ligands inhibit EGFR promoter activity, a transient transfection assay was performed, 184B5 cells were transfected with 1.8 μg of a human EGFR promoter construct ligated luciferase (-1100/-19) and 0.2 μg pSVβgal (Promega Corp., Madison, Wis.). The EGFR promoter is described in Hudson, L. G., et al, Cell 62, 1165-1175 (1990), the whole of which is incorporated herein by reference. 184B5 cells were seeded at a density of 5×10^4 cells/well in 6-well dishes and grown to 50-60% confluence. For each well 2 μg of […] DNA were introduced into cells using 8 μg of LIPOFECTAMINE (Life Technologies, Inc., Grand Island, N.Y.) as per the manufacturers instructions. Following transfection, the cells were treated with ciglitazone (0, 5, 10, 15, 20 and 25 μM) or 15-d-PGJ2 (0, 5, 10, 15, 20, and 25 μM) for 24 hours. The activities of luciferase and β-galactosidase were measured in cellular extract as described in Mestre, J. R, et al, Cancer Res. 57, 1081-1085 (1997). The results are shown in FIG. 2 where luciferase activity represents data that have been normalized to β-galactosidase activity (columns, means; bars, S. D., n=6; * means p<0.01 compared to control).
# HER-2/neu promoter = experiment: transient transfection assay, human HER-2/neu promoter construct ligated to luciferase, 184B5/HER cells; format: cell-based; settings: 0-25 μM, 24 hours, FIG. 1
# Description: To determine whether PPARγ ligands inhibit HER-2/neu promoter activity, a transient transfection assay was performed. 184B5/HER cells were transfected with 1.8 μg of a human HER-21neu promoter construct ligated to luciferase (-1571/--24) and 0.2 μg pSVβgal (Promega Corp., Madison Wis.). The HER-2/neu promoter (-1571/--24) is described in Hudson, L. G. et al, J. Biol. Chem. 265, 4389-4393 (3/90), the whole of which is incorporated herein by reference. The promoter constructs are described in Hudson, L. G., et al, Cell 62, 1165-1175(1990). 184B5/HER cells were seeded at a density of5×10^4 cells well in 6-well dishes and grown to 50-60% confluence. For each well, 2 μg of […] DNA were introduced into cells using 8 μg of LIPOFECTAMINE (Life Technologies, Inc., Grand Island, N.Y.) as per the manufacturer's instructions. Following transfection, the cells were treated with ciglitazone (0, 5, 10, 15, 20 and 25 μM) or 15d-PGJ2 (0, 5, 10, 15, 20 and 25 μM) for 24 hours.
# The activities of luciferase and β-galactosidase were measured in cellular extract as described in Mestre, J. R. et al, Cancer Res. 57, 1081-1085 (1997).
# [2] = test system: EGFR in 184B5 mammary epithelial cells; experiment: immunoblot for EGFR in 184B5 cells; format: cell-based, human; settings: ciglitazone 5-30 μM or 15-d-PGJ2 5, 10 μM, 24 hours
# Description: The cells used were 184B5 cells. The 184B5 cell line was obtained from a collaborator and is an immortalized but non-tumorigenic human breast epithelial cell line that was established from a reduction mammaplasty and is described in Stampler, M. R, et al, Proc. Natl. Acad. Sci. USA 82, 2394-2398 (1985).
# (§1) 184B5 cells were maintained in MEM-KBM mixed in a ratio of 1:1 (basal medium) containing epidermal growth factor (10 ng/ml), hydrocortisone (0.5 μg/ml), transferrin (10 μg/ml), gentamicin (5 μg/ml), and insulin (10 μg/ml) (growth medium). 184B5 cells were grown to 60% confluence, trypsinized with 0.05% trypsin-2 mM ethylenediaminotetraacetic acid and plated for experimental use.
# 184B5 cells were treated with vehicle (0.01% dimethyl sulfoxide), ciglitazone (5, 10, 20, 30 μM) or 15-d-PGJ2 (5, 10 μM) for 24 hours. Cell lysates were prepared in RIPA buffer. Lysates were sonicated for 20 seconds on ice and centrifuged at 10,000×g for 10 minutes to sediment the particulate material. The protein concentration of the supernatant was measured by the method of Lowry,. O. H., et al, J. Biol. Chem. 193, 265-275 (1951). Cellular lysate protein (100 μg/lane) was loaded onto a 10% SDS-polyacrylamide gel, electrophoresed and subsequently transferred onto a nitrocellulose membrane(Schleicher & Schuell Keene, N. H.). […]
# [3] = test system: HER-2/neu in 184B5/HER cells; experiment: immunoblot for HER-2/neu in 184B5/HER cells; format: cell-based, human; settings: 25 μM ciglitazone or 20 μM 15-d-PGJ2, 24 hours
# Text: The 184B5/HER cell line was obtained from a collaborator and was derived by stably transfecting 184B5 cells with a mutationally activated HER-2/neu oncogene; these cells form rapidly growing tumors when injected into athymic nude mice. The 184B5/HER cell line is described in Pierce, J. H., et al., Oncogene 6, 1189-1194 (1991). The BT-474 cell line is a human breast cancer adenocarcinoma cell line which overexpresses HER-2/neu, and was obtained from the American Type Culture Collection (Manassas, Va.) and bears accession number ATCC HBT-20.
# as §1, with “184B5/HER cells” for “184B5 cells”, “(5 μg/ml)” for “(5 μg/ml),”, “medium). […]” for “medium). 184B5”, “ethylenediaminotetraacetic acid,” for “ethylenediaminotetraacetic acid”, “use. […]” for “use.”
# 184B5/HER cells were treated with vehicle (0.01% dimethylsulfoxide), 25 μM ciglitazone (Biomol, Plymouth Meeting, Pennsylvania) or 20 μM 15-d-PGJ2 (Biomol, Plymouth Meeting, Pennsylvania) for 24 hours. […] The protein concentration of the supernatant was measured by the method of Lowry, O. H., et al, J. Biol. Chem. 193, 265-275 (1951). […]
# [4] = test system: head and neck carcinoma where EGFR is overexpressed; experiment: Example VII: head and neck carcinoma; format: in vivo, human; settings: after the 12 weeks of CETUXIMAB and cisplatin, oral 5 mg/kg twice daily for 12 weeks
# Description: Concurrently cisplatin is infused every four weeks at 60 mg/m^2.
# [5] = test system: HER-2/neu positive breast cancer metastasized to bone; experiment: Example IV: breast cancer metastasized to bone; format: in vivo, human; settings: patient after failure of prior chemotherapy, oral 5 mg/kg twice daily plus HERCEPTIN
# Description: After 90 days, oral cyclophosphamide at a dose of 3 mg/kg/day and doxorubicin administered intravenously weekly at a dose of 20 mg/m^2, are added to the drug regimen.
# [6] = test system: HER-2/neu positive breast cancer; experiment: Example II: adjuvant therapy with PPARγ ligand and HERCEPTIN; format: in vivo, human; settings: patient, oral 5 mg/kg twice daily for one year, with HERCEPTIN 250 mg IV loading then 10 weekly doses of 125 mg
# [7] = test system: non-small cell lung carcinoma where EGFR is overexpressed; experiment: Example VI: non-small cell lung carcinoma metastasized to liver; format: in vivo, human; settings: patient, oral 5 mg/kg twice daily
# Description: After one month, PPARγ ligand administration is continued in combination with infusion of cisplatin every four weeks at 60 mg/m^2 for 12 more weeks.
# [8] = test system: HER-2/neu positive breast cancer; experiment: Example I: adjuvant therapy after mastectomy; format: in vivo, human; settings: patient, oral 5 mg/kg twice per day for five years after mastectomy
# [9] = test system: HER-2/neu positive breast cancer metastasized to lung and liver; experiment: Example III: breast cancer metastasized to lung and liver; format: in vivo, human; settings: patient, oral 5 mg/kg twice daily
# Description: After three months, the PPARγ ligand administration is continued in combination regimen with Taxol® at a dose of 175 mg/m^2 administered intravenously every three weeks.
# [10] = test system: HER-2/neu positive colon cancer; experiment: Example V: after resection of colon cancer; format: in vivo, human; settings: patient, oral 5 mg/kg twice daily for five years after resection
# [11] = test system: EGFR positive breast cancer; experiment: Example IX: adjuvant therapy after mastectomy; format: in vivo, human; settings: patient, oral 5 mg/kg twice daily for five years after mastectomy
# [12] = test system: Stage IV EGFR positive breast cancer tumors; experiment: Example VIII: breast cancer with Stage IV EGFR positive tumors; format: in vivo, human; settings: oral 5 mg/kg twice daily in combination with CETUXIMAB and Taxol
# physchem = settings: ph 7.4 buffer, pH 7.4, aqueous buffer
Compound,pKi in binding assay using the human PPARγ binding domain [1],tumor burden [4],tumor burden [5],recurrence of breast cancer [6],tumor burden [7],recurrence of breast cancer [8],also measured
Cc1oc(-c2ccccc2)nc1CCOc1ccc(C[C@H](Nc2ccccc2C(=O)OC(C)C)C(=O)O)cc1 [#66],9.01±0.00,,,,,,
CCOC(=O)c1ccccc1N[C@@H](Cc1ccc(OCCc2nc(-c3ccccc3)oc2C)cc1)C(=O)O [#64],8.52±0.03,,,,,,
"CCCCC/C=C/C=C1/C(=O)C=C[C@@H]1C/C=C\CCCC(=O)O [15-d-PGJ2, 15-deoxy-Δ12, 14-prostaglandin J2]",,,,,,,amounts of HER-2/neu mRNA (Northern blot) (HER-2/neu mRNA): decrease amounts of HER-2/neu mRNA; EGFR promoter activity (luciferase normalized to β-galactosidase) (EGFR promoter): inhibited EGFR promoter activity in a dose-dependent fashion; HER-2/neu promoter activity (luciferase normalized to β-galactosidase) (HER-2/neu promoter): inhibited HER-2 neu promoter activity in a dose-dependent fashion; amounts of EGFR (immunoblot) [2]: decreased amounts of EGFR; amount of HER-2/neu (immunoblot) [3]: decreased the amount of HER-2/neu
"CN(CCOc1ccc(C[C@H](Nc2ccccc2C(=O)c2ccccc2)C(=O)O)cc1)c1nc2ccccc2o1 [structure (II), 3-{4-[2-benzoxazol-2-ylmethylamino)ethoxy](phenyl}-(2S)-((2-benzoylphenyl)amino)propionic acid]",8.83±0.05,further reduced tumor burden,reduced tumor burden,Recurrence of breast cancer does not occur,reduced tumor burden,recurrence of breast cancer does not occur,tumor burden [9]: reduced tumor burden; recurrence of colon cancer [10]: Recurrence of colon cancer does not occur; recurrence of breast cancer [11]: Recurrence of breast cancer dose not occur
CCCOC(=O)c1ccccc1N[C@@H](Cc1ccc(OCCc2nc(-c3ccccc3)oc2C)cc1)C(=O)O [#65],8.62±0.03,,,,,,
CN(CCOc1ccc(CC2SC(=O)NC2=O)cc1)c1ccccn1 (stereo not drawn) [rosiglitazone],7.33±0.02,further reduced tumor burden,reduced tumor burden,Recurrence of breast cancer does not occur,reduced tumor burden,Recurrence of breast cancer does not occur,tumor burden [12]: reduced tumor burden; tumor burden [9]: reduced tumor burden; recurrence of colon cancer [10]: Recurrence of colon cancer does not occur; recurrence of breast cancer [11]: Recurrence of breast cancer dose not occur
"COC(=O)c1ccccc1N[C@@H](Cc1ccc(OCCc2nc(-c3ccccc3)oc2C)cc1)C(=O)O [GW7845, (S)-2-(1-carboxy-2-{4-[2-(5-methyl-2-phenyloxazol-4-yl)ethoxy]phenyl}ethylamino)benzoic acid methyl ester]",,further reduced tumor burden,reduced tumor burden,Recurrence of breast cancer does not occur,reduced tumor burden,recurrence of breast cancer does not occur,solubility (physchem): 300 µg/mL
